Measurements reported in US8137705B2 (priority 2005, dated 2012).

Tests used:
Type in all cases: cell-based
E. coli O26:H11 = E. coli O26:H11 counts in water containing rumen content or feces treated with chemical combinations; settings: 21° C.; for E. coli O26:H11 counts (log10 cfu/ml) at min: 0: 0 min; for E. coli O26:H11 counts (log10 cfu/ml) at min: 2: 2 min; for E. coli O26:H11 counts (log10 cfu/ml) at min: 5: 5 min; for E. coli O26:H11 counts (log10 cfu/ml) at min: 10: 10 min; for E. coli O26:H11 counts (log10 cfu/ml) at min: 20: 20 min; for E. coli O26:H11 counts (log10 cfu/ml) at min: 30: 30 min; for E. coli O26:H11 counts (log10 cfu/ml) at min: 60: 60 min; for E. coli O26:H11 counts (log10 cfu/ml) at min: 120: 120 min
E. coli O111:NM = E. coli O111:NM counts in water containing rumen content or feces treated with chemical combinations; settings: 21° C.; for E. coli O111:NM counts (log10 cfu/ml) at min 0: 0 min; for E. coli O111:NM counts (log10 cfu/ml) at min 2: 2 min; for E. coli O111:NM counts (log10 cfu/ml) at min 5: 5 min; for E. coli O111:NM counts (log10 cfu/ml) at min 10: 10 min; for E. coli O111:NM counts (log10 cfu/ml) at min 20: 20 min; for E. coli O111:NM counts (log10 cfu/ml) at min 30: 30 min; for E. coli O111:NM counts (log10 cfu/ml) at min 60: 60 min; for E. coli O111:NM counts (log10 cfu/ml) at min 120: 120 min
E. coli O157:H7 = E. coli O157:H7 counts in water containing rumen content or feces treated with chemicals or chemical combinations; settings: for E. coli O157:H7 counts (log10 cfu/ml) at min 0 / E. coli O157:H7 counts (log10 cfu/ml) at min 2 / E. coli O157:H7 counts (log10 cfu/ml) at min 5 / E. coli O157:H7 counts (log10 cfu/ml) at min 10 / E. coli O157:H7 counts (log10 cfu/ml) at min 20 / E. coli O157:H7 counts (log10 cfu/ml) at min 30 / E. coli O157:H7 counts (log10 cfu/ml) at min 60 / E. coli O157:H7 counts (log10 cfu/ml) at min 120: 21° C.; for E. coli O157:H7 counts (log10 cfu/ml) at min 0: 0 min; for E. coli O157:H7 counts (log10 cfu/ml) at min 2: 2 min; for E. coli O157:H7 counts (log10 cfu/ml) at min 5: 5 min; for E. coli O157:H7 counts (log10 cfu/ml) at min 10: 10 min; for E. coli O157:H7 counts (log10 cfu/ml) at min 20: 20 min; for E. coli O157:H7 counts (log10 cfu/ml) at min 30: 30 min; for E. coli O157:H7 counts (log10 cfu/ml) at min 60: 60 min; for E. coli O157:H7 counts (log10 cfu/ml) at min 120: 120 min
[1] = water containing feces (20:1, v/w)
[2] = water containing rumen content (10:1, v/w)

CCCC(=O)O [0.5% butyric acid, butyric acid]
E. coli O26:H11 counts (log10 cfu/ml) at min: 0 (E. coli O26:H11; [1]): 5.5 log10 cfu/ml | E. coli O26:H11 counts (log10 cfu/ml) at min: 2 (E. coli O26:H11; [1]): 5.4 log10 cfu/ml | E. coli O26:H11 counts (log10 cfu/ml) at min: 5 (E. coli O26:H11; [1]): 5.4 log10 cfu/ml | E. coli O26:H11 counts (log10 cfu/ml) at min: 10 (E. coli O26:H11; [1]): 5.4 log10 cfu/ml | E. coli O26:H11 counts (log10 cfu/ml) at min: 20 (E. coli O26:H11; [1]): 5.5 log10 cfu/ml | E. coli O26:H11 counts (log10 cfu/ml) at min: 30 (E. coli O26:H11; [1]): 5.2 log10 cfu/ml | E. coli O26:H11 counts (log10 cfu/ml) at min: 60 (E. coli O26:H11; [1]): 5.2 log10 cfu/ml | E. coli O26:H11 counts (log10 cfu/ml) at min: 120 (E. coli O26:H11; [1]): 5.0 log10 cfu/ml | E. coli O26:H11 counts (log10 cfu/ml) at min: 0 (E. coli O26:H11; [2]): 5.4 log10 cfu/ml | E. coli O26:H11 counts (log10 cfu/ml) at min: 2 (E. coli O26:H11; [2]): 5.4 log10 cfu/ml | E. coli O26:H11 counts (log10 cfu/ml) at min: 5 (E. coli O26:H11; [2]): 5.3 log10 cfu/ml | E. coli O26:H11 counts (log10 cfu/ml) at min: 10 (E. coli O26:H11; [2]): 5.4 log10 cfu/ml | E. coli O26:H11 counts (log10 cfu/ml) at min: 20 (E. coli O26:H11; [2]): 5.4 log10 cfu/ml | E. coli O26:H11 counts (log10 cfu/ml) at min: 30 (E. coli O26:H11; [2]): 5.2 log10 cfu/ml | E. coli O26:H11 counts (log10 cfu/ml) at min: 60 (E. coli O26:H11; [2]): 5.4 log10 cfu/ml | E. coli O26:H11 counts (log10 cfu/ml) at min: 120 (E. coli O26:H11; [2]): 5.1 log10 cfu/ml | E. coli O111:NM counts (log10 cfu/ml) at min 0 (E. coli O111:NM; [1]): 5.6 log10 cfu/ml | E. coli O111:NM counts (log10 cfu/ml) at min 2 (E. coli O111:NM; [1]): 5.6 log10 cfu/ml | E. coli O111:NM counts (log10 cfu/ml) at min 5 (E. coli O111:NM; [1]): 5.5 log10 cfu/ml | E. coli O111:NM counts (log10 cfu/ml) at min 10 (E. coli O111:NM; [1]): 5.6 log10 cfu/ml | E. coli O111:NM counts (log10 cfu/ml) at min 20 (E. coli O111:NM; [1]): 5.6 log10 cfu/ml | E. coli O111:NM counts (log10 cfu/ml) at min 30 (E. coli O111:NM; [1]): 5.6 log10 cfu/ml | E. coli O111:NM counts (log10 cfu/ml) at min 60 (E. coli O111:NM; [1]): 5.6 log10 cfu/ml | E. coli O111:NM counts (log10 cfu/ml) at min 120 (E. coli O111:NM; [1]): 5.6 log10 cfu/ml | E. coli O111:NM counts (log10 cfu/ml) at min 0 (E. coli O111:NM; [2]): 5.5 log10 cfu/ml | E. coli O111:NM counts (log10 cfu/ml) at min 2 (E. coli O111:NM; [2]): 5.5 log10 cfu/ml | E. coli O111:NM counts (log10 cfu/ml) at min 5 (E. coli O111:NM; [2]): 5.5 log10 cfu/ml | E. coli O111:NM counts (log10 cfu/ml) at min 10 (E. coli O111:NM; [2]): 5.6 log10 cfu/ml | E. coli O111:NM counts (log10 cfu/ml) at min 20 (E. coli O111:NM; [2]): 5.6 log10 cfu/ml | E. coli O111:NM counts (log10 cfu/ml) at min 30 (E. coli O111:NM; [2]): 5.4 log10 cfu/ml | E. coli O111:NM counts (log10 cfu/ml) at min 60 (E. coli O111:NM; [2]): 5.5 log10 cfu/ml | E. coli O111:NM counts (log10 cfu/ml) at min 120 (E. coli O111:NM; [2]): 5.6 log10 cfu/ml | inactivation of E. coli O157:H7 within 20 minutes (E. coli O157:H7; butyric acid >2%, caprylic acid >0.1%, data not shown): substantial inactivation | E. coli O157:H7 counts (log10 cfu/ml) at min 0 (E. coli O157:H7; [1]): 6.0 log10 cfu/ml | E. coli O157:H7 counts (log10 cfu/ml) at min 2 (E. coli O157:H7; [1]): 6.0 log10 cfu/ml | E. coli O157:H7 counts (log10 cfu/ml) at min 5 (E. coli O157:H7; [1]): 6.0 log10 cfu/ml | E. coli O157:H7 counts (log10 cfu/ml) at min 10 (E. coli O157:H7; [1]): 6.1 log10 cfu/ml | E. coli O157:H7 counts (log10 cfu/ml) at min 20 (E. coli O157:H7; [1]): 6.1 log10 cfu/ml | E. coli O157:H7 counts (log10 cfu/ml) at min 30 (E. coli O157:H7; [1]): 6.1 log10 cfu/ml | E. coli O157:H7 counts (log10 cfu/ml) at min 60 (E. coli O157:H7; [1]): 6.0 log10 cfu/ml | E. coli O157:H7 counts (log10 cfu/ml) at min 120 (E. coli O157:H7; [1]): 6.0 log10 cfu/ml | E. coli O157:H7 counts (log10 cfu/ml) at min 0 (E. coli O157:H7; [2]): 5.9 log10 cfu/ml | E. coli O157:H7 counts (log10 cfu/ml) at min 2 (E. coli O157:H7; [2]): 5.9 log10 cfu/ml | E. coli O157:H7 counts (log10 cfu/ml) at min 5 (E. coli O157:H7; [2]): 5.9 log10 cfu/ml | E. coli O157:H7 counts (log10 cfu/ml) at min 10 (E. coli O157:H7; [2]): 5.8 log10 cfu/ml | E. coli O157:H7 counts (log10 cfu/ml) at min 20 (E. coli O157:H7; [2]): 5.7 log10 cfu/ml | E. coli O157:H7 counts (log10 cfu/ml) at min 30 (E. coli O157:H7; [2]): 5.8 log10 cfu/ml | E. coli O157:H7 counts (log10 cfu/ml) at min 60 (E. coli O157:H7; [2]): 5.6 log10 cfu/ml | E. coli O157:H7 counts (log10 cfu/ml) at min 120 (E. coli O157:H7; [2]): 5.7 log10 cfu/ml
